Data set [1] deals with RAW264.7. In words: Anti-inflammatory activity against LPS-induced mouse RAW264.7 cells assessed as inhibition of IL-1beta mRNA level at 10 uM preincubated with compound for 1 hr followed by LPS-induction and measured after 4 to 24 hrs by RT-qPCR analysis. It counts as functional. Particulars: time 5-25 hrs. On the technique in general: Quantitative PCR measures a nucleic acid by following its amplification.

Data set [2] relates to RAW264.7. In words: Anti-inflammatory activity against LPS-induced mouse RAW264.7 cells assessed as inhibition of IL-6 mRNA level at 10 uM preincubated with compound for 1 hr followed by LPS-induction and measured after 4 to 24 hrs by RT-qPCR analysis. It counts as functional. The settings on record: time 5-25 hrs.
For data set [3], the system named is RAW264.7. Briefly: Cytotoxicity against mouse RAW264.7 cells at 10 uM by CCK-8 assay. It counts as functional, cell-based.
In data set [4] the test system is Mus musculus. In words: Anti-inflammatory activity against PM2.5-induced lung injury C57BL/6 mouse model assessed as infiltration of inflammatory cells at 15 to 60 mg/kg, po administered for 7 days by H and E staining based analysis. It counts as functional, organism-based. Particulars: dose 15-60 mg/kg, time 7.0 day.
Data set [5] relates to RAW264.7. In words: Upregulation of HO-1 mRNA level in LPS-induced mouse RAW264.7 cells at 10 to 50 uM. The settings on record: dose 10-50 µM. It is filed as functional, cell-based.
Data set [6] deals with RAW264.7. In words: Activation of Nrf2/HO-1 signalling pathway in LPS-induced mouse RAW264.7 cells assessed as induction of Nrf2 nuclear translocation at 20 uM. It counts as cell-based. The settings on record: filed as activator.
Data set [7] concerns Mus musculus. Briefly: Anti-inflammatory activity against PM2.5-induced lung injury C57BL/6 mouse model assessed as lung particle aggregation at 15 to 60 mg/kg, po administered for 7 days by H and E staining based analysis. It counts as functional, organism-based. Particulars: dose 15-60 mg/kg, time 7.0 day.
Data set [8] has as its system RAW264.7. Briefly: Upregulation of Keap1 mRNA level in LPS-induced mouse RAW264.7 cells at 10 to 50 uM. It is filed as functional, cell-based. Particulars: dose 10-50 µM.
The nature of data set [9]: Toxicity in C57BL/6 mouse assessed as reduction in body weight at 15 to 60 mg/kg, po administered for 7 days. It is filed as organism-based. The settings on record: in vivo, 168 h, dose 15-60 mg/kg, time 7 day.
Data set [10] concerns RAW264.7. Briefly: Activation of Nrf2/HO-1 signalling pathway in LPS-induced mouse RAW264.7 cells assessed as induction of Nrf2 nuclear translocation at 20 uM in presence of KI696. The settings on record: filed as activator. It is filed as cell-based.
The subject of data set [11] is RAW264.7. Briefly: Activation of Nrf2-Keap1-HO-1 signaling pathway in mouse RAW264.7 cells assessed as upregulation of P62 expression at 10 to 50 uM by Western blot analysis. It is filed as cell-based. The settings on record: filed as activator, dose 10-50 µM.
Data set [12] concerns Mus musculus. Briefly: Anti-inflammatory activity against PM2.5-induced lung injury C57BL/6 mouse model assessed as pulmonary alveoli collapse at 15 to 60 mg/kg, po administered for 7 days by H and E staining based analysis. It counts as functional, organism-based. The settings on record: dose 15-60 mg/kg, time 7.0 day.
Data set [13] relates to RAW264.7. In words: Anti-inflammatory activity against LPS-induced mouse RAW264.7 cells assessed as inhibition of IL-6 mRNA level preincubated with compound for 1 hr followed by LPS-induction and measured after 4 to 24 hrs by RT-qPCR analysis. It counts as functional, cell-based. The settings on record: dose 10-50 µM, time 5-25 hrs.
Data set [14] relates to RAW264.7. In words: Activation of Nrf2-Keap1-HO-1 signaling pathway in mouse RAW264.7 cells assessed as upregulation of HO-1 expression at 10 to 50 uM by Western blot analysis. It counts as cell-based. The settings on record: filed as activator, dose 10-50 µM. In general terms: Immunoblotting shows a protein as a band on a membrane.
The nature of data set [15]: Toxicity in C57BL/6 mouse assessed as pathological changes in kidney at 15 to 60 mg/kg, po administered for 7 days by H and E staining based analysis. The settings on record: in vivo, 168 h, dose 15-60 mg/kg, time 7 day. It is filed as organism-based.
The test system of data set [16] is Mus musculus. In words: Anti-inflammatory activity against PM2.5-induced lung injury C57BL/6 mouse model assessed as decrease in iNOS expression in lung at 15 to 60 mg/kg, po administered for 7 days by IHC analysis. It is filed as functional, organism-based. Particulars: dose 15-60 mg/kg, time 7.0 day.
Data set [17] deals with Mus musculus. Briefly: Anti-inflammatory activity against PM2.5-induced lung injury C57BL/6 mouse model assessed as decrease in collagen formation in lung at 15 to 60 mg/kg, po administered for 7 days by Masson staining based analysis. It counts as functional, organism-based. The settings on record: dose 15-60 mg/kg, time 7.0 day.
The test system of data set [18] is Mus musculus. In words: Anti-inflammatory activity against PM2.5-induced lung injury C57BL/6 mouse model assessed as increase in Arg-1 level in lung at 15 to 60 mg/kg, po administered for 7 days by IHC analysis. It counts as functional, organism-based. The settings on record: dose 15-60 mg/kg, time 7.0 day.
Data set [19] has as its system RAW264.7. Briefly: Anti-inflammatory activity against LPS-induced mouse RAW264.7 cells assessed as inhibition of IL-1beta mRNA level at 20 uM preincubated with compound for 1 hr followed by LPS-induction and measured after 4 to 24 hrs by RT-qPCR analysis. The settings on record: time 5-25 hrs. It is filed as functional, cell-based.
Data set [20] concerns Mus musculus. In words: Anti-inflammatory activity against PM2.5-induced lung injury C57BL/6 mouse model assessed as decrease in LY6G expression in lung at 15 to 60 mg/kg, po administered for 7 days by IHC analysis. It counts as functional, organism-based. The settings on record: dose 15-60 mg/kg, time 7.0 day.
Data set [21] has as its system RAW264.7. In words: Anti-inflammatory activity against LPS-induced mouse RAW264.7 cells assessed as inhibition of IL-1beta mRNA level preincubated with compound for 1 hr followed by LPS-induction and measured after 4 to 24 hrs by RT-qPCR analysis. It counts as functional, cell-based. The settings on record: dose 10-50 µM, time 5-25 hrs.
Data set [22] can be described thus: Toxicity in C57BL/6 mouse assessed as liver damage at 15 to 60 mg/kg, po administered for 7 days by H and E staining based analysis. Particulars: in vivo, 168 h, dose 15-60 mg/kg, time 7 day. It is filed as organism-based.
For data set [23], the system named is RAW264.7. In words: Anti-inflammatory activity against LPS-induced mouse RAW264.7 cells assessed as inhibition of TNF-alpha mRNA level at 20 uM preincubated with compound for 1 hr followed by LPS-induction and measured after 4 to 24 hrs by RT-qPCR analysis. It counts as functional, cell-based. Particulars: time 5-25 hrs.
Data set [24] relates to Mus musculus. In words: Anti-inflammatory activity against PM2.5-induced lung injury C57BL/6 mouse model assessed as reduction in WBC cells in peripheral blood at 15 to 60 mg/kg, po administered for 7 days. It is filed as functional, organism-based. Particulars: dose 15-60 mg/kg, time 7.0 day.
For data set [25], the system named is RAW264.7. In words: Upregulation of Nrf2 mRNA level in LPS-induced mouse RAW264.7 cells at 10 to 50 uM. It is filed as functional, cell-based. Particulars: dose 10-50 µM.
Data set [26] has as its system Mus musculus. In words: Anti-inflammatory activity against PM2.5-induced lung injury C57BL/6 mouse model assessed as inhibition of mucin expression in lung at 15 to 60 mg/kg, po administered for 7 days by AB-PAS staining based analysis. It is filed as functional, organism-based. Particulars: dose 15-60 mg/kg, time 7.0 day.
The test system of data set [27] is NCI-H292. In words: Anti-inflammatory activity against EGF-induced human NCI-H292 cells assessed as decrease in MUC5AC mRNA expression at 20 to 50 uM by RT-qPCR analysis. It is filed as functional, cell-based. Particulars: dose 20-50 µM.
For data set [28], the system named is RAW264.7. Briefly: Anti-inflammatory activity against LPS-induced mouse RAW264.7 cells assessed as inhibition of IL-6 level incubated for 24 hrs by ELISA analysis. It counts as functional, cell-based. The settings on record: RAW264.7, 24 h.
The subject of data set [29] is RAW264.7. In words: Anti-inflammatory activity against LPS-induced mouse RAW264.7 cells assessed as increase in NRF2 nuclear translocation by laser confocal scanning microscopic analysis. It counts as functional, cell-based.
Data set [30] relates to RAW264.7. In words: Anti-inflammatory activity against LPS-induced mouse RAW264.7 cells assessed as inhibition of TNF-alpha mRNA level preincubated with compound for 1 hr followed by LPS-induction and measured after 4 to 24 hrs by RT-qPCR analysis. It counts as functional, cell-based. The settings on record: dose 10-50 µM, time 5-25 hrs.
Data set [31] has as its system Mus musculus. Briefly: Anti-inflammatory activity against PM2.5-induced lung injury C57BL/6 mouse model assessed as reduction in number of cells in BALF at 15 to 60 mg/kg, po administered for 7 days. Particulars: dose 15-60 mg/kg, time 7.0 day. It is filed as functional, organism-based.
Data set [32] relates to RAW264.7. Briefly: Anti-inflammatory activity against LPS-induced mouse RAW264.7 cells assessed as inhibition of TNF-alpha mRNA level at 2 uM preincubated with compound for 1 hr followed by LPS-induction and measured after 4 to 24 hrs by RT-qPCR analysis. It is filed as functional, cell-based. Particulars: time 5-25 hrs.
Data set [33] relates to RAW264.7. Briefly: Anti-inflammatory activity against LPS-induced mouse RAW264.7 cells assessed as inhibition of IL-1beta mRNA level at 2 uM preincubated with compound for 1 hr followed by LPS-induction and measured after 4 to 24 hrs by RT-qPCR analysis. It counts as functional, cell-based. The settings on record: time 5-25 hrs.
Data set [34] deals with RAW264.7. In words: Activation of Nrf2/HO-1 signalling pathway in LPS-induced mouse RAW264.7 cells assessed as induction of Nrf2 nuclear translocation at 2 uM. The settings on record: filed as activator. It counts as cell-based.

Molecules are shown by their SMILES. Activity calls are given as the source filed them. No cut-off for these calls is given here.

Usually inhibition stands for how much of the control response was suppressed. As a reminder, the IC50 is the concentration that inhibits the measured activity by half.

On to `CN(/C=C\c1ccccc1)C(=O)c1cc(-c2ccc(C(F)(F)F)cc2)nn1-c1ccc(C(F)(F)F)cc1`, for which the inhibition at 10 µM in [1] worked out at 93.5%.
For the molecule `Cc1cccc(-c2cc(C(=O)N(C)/C=C\c3ccccc3)n(-c3ccc(C(F)(F)F)cc3)n2)c1`, the results for the inhibition at 10 µM in data set [1] and in data set [2] were 9.84% and 49.5%, respectively.
Consider `CN(/C=C\c1ccccc1)C(=O)c1cc(-c2ccccc2Cl)nn1-c1ccc(C(F)(F)F)cc1`, for which the inhibition at 10 µM came to 97.1% in [1] and 53.9% in data set [2].
On to `Cc1ccc(-n2nc(C(=O)N(C)/C=C\c3ccccc3)cc2C(C)(C)C)cc1`, for which the outcome in data set [3] was Active.
As for `CN(/C=C\c1ccccc1)C(=O)c1cc(C(C)(C)C)n(-c2ccc(F)cc2)n1`, the result in [4], in data set [5], in [6], in [7], in data set [8] and in data set [10] was Active. Besides, the outcome in data set [11], in data set [12], in data set [14], in [16], in [17] and in data set [18] was Active. The result in [19], in data set [20], in data set [23], in data set [24], in [25] and in data set [26] was Active. Besides, the outcome in [27], in data set [29] and in [31] was Active. For the same molecule, the Activity entry is “Non-toxic” in data set [9]; “Dose-dependent-effect” in data set [13]; “Non-toxic” in data set [15]; “Dose-dependent-effect” in data set [21]; “Non-toxic” in data set [22]; “Dose-dependent-effect” in data set [30]. Moreover, the inhibition at 10 µM in data set [1] worked out at 96%; in [2], 60.3%. Besides, the IC50 in data set [28] was 4.82 µM.
Turning to `Cc1ccc(-c2cc(C(=O)N(C)/C=C\c3ccccc3)n(-c3ccc(C(F)(F)F)cc3)n2)cc1`, the inhibition at 10 µM in [1] worked out at 91.1%.
On the same count and under the same terms, in the case of `COc1ccc(-n2nc(C(=O)N(C)/C=C\c3ccccc3)cc2C(C)(C)C)cc1` it was 94.7%; in that of `CN(/C=C\c1ccccc1)C(=O)c1cc(-c2ccccc2)nn1-c1ccc(C(F)(F)F)cc1`, 94.5%.
On to `CN(/C=C\c1ccccc1)C(=O)/C=C/c1ccccc1` [LANSIUMAMIDE B], for which the inhibition at 10 µM in data set [1] came out at 18%; in data set [2], 73.4%.
As to `Cc1ccccc1-c1cc(C(=O)N(C)/C=C\c2ccccc2)n(-c2ccc(C(F)(F)F)cc2)n1`, the inhibition at 10 µM in data set [1] was found to be 95.8%.
As for `CN(/C=C\c1ccccc1)C(=O)c1cc(-c2ccccc2C(F)(F)F)nn1-c1ccc(C(F)(F)F)cc1`, the inhibition at 10 µM in data set [1] is 96%.
For the molecule `CN(/C=C\c1ccccc1)C(=O)c1cc(-c2ccccc2F)nn1-c1ccc(C(F)(F)F)cc1`, the inhibition at 10 µM was found to be 96.5% in data set [1] and 50.2% in data set [2].
For the molecule `COc1cc([C@@H](CC(=O)O)c2ccc(C)c(CN3C[C@@H](C)Oc4ccccc4S3(=O)=O)c2)cc2nnn(C)c12`, the result in data set [32], in data set [29], in data set [33] and in [34] was Active.
